Experimental data reported in patent US6350913B1, “3-alkoxybenzylamine derivatives and their use as medicines for treating schizophrenia” (Pierre Fabre Medicament, priority 1998, dated 2002).
Counter-ions that a name gives are not always drawn.

How the values were obtained:
[1] = system: behavioral patterns induced by methylphenidate; test: Inhibition of behavioral patterns induced by methylphenidate (in vivo antidopaminergic activity); details: Rattus norvegicus, ip, read-out: Normalization ED50
D2 receptors = D2 receptors (Homo sapiens, UniProt P14416); test: Affinity for D2-type receptors by displacement of (3H) YM-09151-2; type: binding; details: mean of at least 3 experiments, read-out: D2 pKi (converted)
Experimental: 1- Measurement of the affinity of the compounds of the invention for the D2 receptors. The affinity of the compounds of the invention for the D2-type receptors was determined by measuring the displacement of (^3H) YM-09151-2 (NET-1004 70-87 Ci/mmol), according to the method described in Naunyn-Schimiedeberg's Arch. Pharmacol. Methods, 1985, 329, 333. The pKi values (-log Ki) are given in the form of a mean±SEM of at least 3 experiments.

[2] = Cataleptogenic power (propensity to induce extrapyramidal side effects); details: rat, in vivo, ip; rats, i.p. administration; read-out: Catalepsy ED50

Chain of D2 receptors (P14416 whole entry): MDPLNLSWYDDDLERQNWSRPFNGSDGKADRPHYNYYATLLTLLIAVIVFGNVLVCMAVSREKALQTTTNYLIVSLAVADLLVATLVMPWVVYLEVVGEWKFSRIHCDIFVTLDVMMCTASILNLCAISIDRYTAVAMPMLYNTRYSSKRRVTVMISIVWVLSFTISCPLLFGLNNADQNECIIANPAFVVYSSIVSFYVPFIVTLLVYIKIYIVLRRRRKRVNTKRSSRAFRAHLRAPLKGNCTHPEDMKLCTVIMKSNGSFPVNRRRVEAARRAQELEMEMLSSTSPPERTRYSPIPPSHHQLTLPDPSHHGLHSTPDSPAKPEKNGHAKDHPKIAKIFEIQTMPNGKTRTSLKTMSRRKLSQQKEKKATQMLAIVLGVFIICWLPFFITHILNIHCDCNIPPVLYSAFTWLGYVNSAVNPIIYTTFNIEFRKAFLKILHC

| SMILES | ED50 [1] | Ki (D2 receptors) | ED50 [2] | melting point |
| --- | --- | --- | --- | --- |
| Cc1nc2n(c(=O)c1CCN1CCC(c3noc4cc(F)ccc34)CC1)CCCC2 [Risperidone, reference compound] | 2.9 mg/kg |  |  |  |
| CC(C)Oc1ccccc1OCCNCc1cc(OC2CCCC2)ccc1F [Compound 1.12] | 1.25 mg/kg | 0.741 nM | > 40 mg/kg |  |
| CC(C)Oc1ccccc1OCCNCc1cccc(OC2CC3C=CC2C3)c1 (stereo not drawn) (as salt: oxalate) [Compound 1.4] |  |  |  | 177 °C |
| CC(C)Oc1ccccc1OCCNCc1cccc(OC2CC3C=CC2C3)c1 (stereo not drawn) [Compound 1.4] | 5 mg/kg | 2.75 nM | > 40 mg/kg |  |
| CC(C)Oc1ccccc1OCCNCc1cc(OC2CCCC2)ccc1F (as salt: oxalate) [Compound 1.12] |  |  |  | 159 °C |
